# What was measured:
# Experiment in all cases: relative viability (nuclei count vs DMSO), 5 days (fraction); higher = more cells survive
# Navitoclax = compound: CC1(C)CCC(c2ccc(Cl)cc2)=C(CN2CCN(c3ccc(C(=O)NS(=O)(=O)c4ccc(N[C@H](CCN5CCOCC5)CSc5ccccc5)c(S(=O)(=O)C(F)(F)F)c4)cc3)CC2)C1 [Navitoclax]
# Summary of the method: (§1)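 Hoechst staining, done together with fixation and permeabilisation, marked nuclei for 4× imaging and MetaXpress counting. This followed 5 days without medium change after lung cancer cell lines, kept overnight at 37 °C in 1536-well plates, were pinned with five library-drug doses (not always all listed) spaced by √10 on vehicle-anchored plates. Viability is the ratio of treated-well to vehicle-well nuclei, expressed as a median across plates. Plates passed only at control CV below 25% with at least one doubling.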
# C-75 = compound: CCCCCCCC[C@H]1[C@@H](C(=C)C(=O)O1)C(=O)O [C-75]
# Summary of the method: as §1
# AZD7762 = compound: NC(=O)Nc1cc(-c2cccc(F)c2)sc1C(=O)N[C@H]1CCCNC1 [AZD7762]
# Summary of the method: as §1
# [1] = compound: O=C(O)c1ccc(-c2c[nH]c3ncc(-c4ccccc4)cc23)cc1C1CCCC1
# Summary of the method: as §1
# XAV939 = compound: Oc1nc(-c2ccc(C(F)(F)F)cc2)nc2c1CSCC2 [XAV939]
# Summary of the method: as §1
Cell Line,relative viability (Navitoclax; 0.005 µM),relative viability (Navitoclax; 0.01581 µM),relative viability (Navitoclax; 0.1581 µM),relative viability (Navitoclax; 0.5 µM),"relative viability (Navitoclax; 0.5 µM, anchor plate)",relative viability (C-75; 0.08 µM),relative viability (C-75; 0.253 µM),relative viability (C-75; 0.8 µM),relative viability (C-75; 2.53 µM),relative viability (C-75; 8 µM),relative viability (AZD7762; 0.01 µM),relative viability (AZD7762; 0.03162 µM),relative viability (AZD7762; 0.1 µM),"relative viability (AZD7762; 0.2 µM, anchor plate)",relative viability (AZD7762; 0.3162 µM),relative viability (AZD7762; 1 µM),relative viability ([1]; 0.04 µM),relative viability ([1]; 0.1265 µM),relative viability ([1]; 0.4 µM),relative viability ([1]; 1.265 µM),relative viability (XAV939; 0.08 µM),relative viability (XAV939; 0.253 µM),relative viability (XAV939; 0.8 µM),relative viability (XAV939; 2.53 µM),relative viability (Navitoclax; 0.05 µM)
NCI-H2087,1.01,1.16,1.01,1.09,0.952,1.06,0.963,0.941,0.915,0.924,1.02,1.08,1.26,1.24,1.23,1.24,1.12,1.14,1.04,0.794,1.32,0.781,1.07,0.849,–
NCI-H2126,1.04,1.07,0.927,0.976,0.852,0.949,1.14,0.957,0.919,0.943,0.972,1.07,1.05,1.01,1.02,1.09,1.1,1,0.992,0.923,1.01,0.826,0.822,0.807,0.901
NCI-H2170,1.02,1.06,0.935,0.748,0.636,0.984,0.94,0.943,0.913,0.954,1,1.01,1.02,0.858,0.989,0.972,1.01,1,0.937,0.904,0.937,0.886,0.939,0.785,1.06
NCI-H2228,0.965,1.01,0.968,1.11,0.968,0.969,1.09,0.952,0.986,1.06,1.17,0.982,0.997,–,0.649,0.361,0.942,1.09,0.924,0.639,1.01,0.811,0.921,0.88,–
NCI-H2342,1.01,0.999,0.961,1.01,–,0.924,0.988,0.833,0.857,1.04,0.903,1.1,0.983,0.514,0.997,1.04,0.943,0.985,0.979,1.1,1.04,0.794,0.781,0.508,0.938
NCI-H2347,1.02,1.12,1.02,1.03,0.757,0.991,1.09,0.973,0.862,1.02,1.16,1.04,1.24,0.812,1.21,0.922,1.1,1.08,1.02,0.906,1.19,0.978,0.964,0.84,0.906
NCI-H2405,0.984,1.11,1.03,0.93,0.845,1.01,0.737,0.948,0.872,1.07,1.02,1.11,1.02,0.763,0.953,0.585,0.998,1.13,0.977,0.741,1.03,0.978,0.966,0.993,0.996
NCI-H3122,1.01,0.965,0.989,0.972,1.01,1,1,0.996,0.692,0.992,1.01,1.02,1.01,0.983,0.88,1.04,0.986,1.04,0.959,0.946,1.01,0.936,1.02,0.966,1.06
PC-3 [JPC-3],1.03,1.07,1.01,1.02,0.816,0.961,0.97,0.994,0.995,1.16,1.03,1.06,1.1,0.897,1.05,0.931,1.07,1.09,1,0.945,1.02,0.924,1.02,0.947,1.08
PC-14,1,1.16,0.981,0.956,1.01,0.939,0.86,0.902,0.927,1,1.03,0.995,0.931,0.39,0.562,0.368,0.956,1.12,1,0.962,1.1,0.933,0.974,0.885,1.05
RERF-LC-KJ,0.973,0.98,1.01,0.997,0.987,1.02,1.14,0.981,0.95,1.06,0.976,1.03,1.06,1.03,1.04,0.959,1.02,0.96,0.985,0.916,0.968,0.862,0.859,0.743,0.961
SK-LU-1,1.01,1.06,0.949,1.02,0.813,1,1.06,0.964,0.894,0.816,1.1,1.06,0.633,–,0.366,0.242,1.01,1.13,0.978,0.74,1.01,1.02,1.03,1.07,1.12
SK-MES-1,1.01,1.17,0.95,1.04,1.25,1.01,1.02,0.937,0.93,0.943,1,1.03,1.05,–,0.818,0.372,1,1.05,0.943,0.755,1.07,0.906,0.919,0.858,1.11
SW 900,0.841,1.06,0.742,0.925,–,0.786,1.11,0.719,0.695,0.867,0.876,0.957,1.17,0.68,0.891,0.475,0.846,0.915,0.777,0.741,0.954,0.832,0.928,0.677,0.667
SW 1573,1.03,1.11,0.901,0.956,0.973,0.981,1.05,0.946,0.758,0.855,1.13,1.05,1.08,–,0.96,0.607,0.981,1.03,0.89,0.706,1.1,0.857,0.908,0.81,1.06
UMC-11,0.944,0.966,0.903,0.621,0.324,0.949,1.1,0.875,0.721,0.726,0.997,0.961,0.979,–,0.822,0.537,0.978,1.08,0.934,0.905,0.996,0.777,0.955,0.868,0.742

# — the supplement of paper PMC10307832
